Experimental data taken from patent US20240139113A1, “LIPID NANOPARTICLE WITH TARGET INTEGRIN FUNCTION AND USES THEREOF” (priority 2022, published 2024).

How the values were obtained:
[1] = test system: human umbilical vein endothelial cells (HUVEC); assay: Cell viability of normal cells (HUVEC), 3-day treatment; type: cell-based; conditions: 3 days, FIG. 2A
Excerpt: (§1) In this example, the effect of the lipid nanoparticle on the growth of normal cells is investigated.
(§2) Dox represents doxorubicin; Tetrac represents tetraiodothyroacetic acid.

[2] = test system: monkey kidney epithelial cells (Vero); assay: Cell viability of normal cells (Vero), 3-day treatment; type: cell-based; conditions: 3 days, FIG. 2A
Excerpt: as §1, §2

With `O=C(O)Cc1cc(I)c(Oc2cc(I)c(O)c(I)c2)c(I)c1` [Tetrac, tetraiodothyroacetic acid] the “cell viability / growth of normal cells” value [1] was “do not affect the growth of normal cells” and the “cell viability / growth of normal cells” value [2] was “do not affect the growth of normal cells”.
